Measurements as given in patent publication US10538564B2, “Peptides having osteoblast growth-promoting activity and use thereof” (PHARMA FOODS INTERNATIONAL CO., LTD., priority 2014, dated 2020).
No end group written: not given here.

How the values were obtained:
[1] = tested on: mouse osteoblast-like cell line MC3T3-E1 Subclone-4; test: Osteoblast growth-promoting activity (cell counting method); assay type: cell-based; conditions: synthetic peptides at 2.5, 5 or 10 μg/mL; 72 hours; relative to PBS (−) group taken as 100; FIGS. 9 to 12
Method: A mouse osteoblast-like cell line MC3T3-E1 Subclone-4 (ATCC No. CRL-2593) was cultured in α-MEM medium supplemented with 10% FBS at 5% CO2 and 95% air at 37° C. until confluent. The cells were collected by trypsinization. The collected cells were suspended at 1×10^4 cells/mL in fresh α-MEM medium. One mL of the cell suspension was seeded in each well of a 24-well plate, and precultured at 5% CO2 and 95% air at 37° C. On the next day, the medium was replaced with medium prepared by well mixing 50 μL of a sample or PBS (−) with 950 μL of fresh α-MEM medium supplemented with CaCl2 to a Ca concentration of 500 μg/mL. The cells were further cultured for 72 hours. The growth activity of osteoblasts was measured by the cell counting method. The activity of the sample for promoting the growth of osteoblasts was expressed in terms of the relative value, with the growth rate in the PBS (−) group taken as 100. Osteoblast growth-promoting activity was determined for the synthetic peptides in the same manner as in Example 1. The synthetic peptides were added at 2.5, 5 or 10 μg/mL per well. As a control, PBS (−) was added. The osteoblast growth-promoting activity was expressed in terms of the relative value, with the growth rate in the PBS (−) group taken as 100.

[2] = tested on: Sprague-Dawley male rats at three weeks old; test: Bone growth promoting effect in adolescent rats (tibial growth plate, calcein label); assay type: in vivo, rat; conditions: FIG. 13
Method: One of the synthetic peptides (No. 1) or physiological saline (control) was administered to Sprague-Dawley male rats at three weeks old by oral gavage using a gastric tube once a day for four days. The dose of the synthetic peptide was 1, 10 or 100 mg/kg·day. As a positive control, human growth hormone (hGH) (Norditropin, Standard Commodity Classification No. of Japan: 872412) was subcutaneously administered at 20 μg/kg·day once a day for four days. After the administration on day 4, calcein was subcutaneously administered, and the rats were kept for one day. The rats were euthanized by bloodletting under anesthesia, and the tibiae were harvested. The tissue specimens of the tibial growth plates were prepared, and calcein deposition areas (fluorescent regions) on the tibial growth plates were measured under a fluorescent microscope to determine the longitudinal bone growth.

[3] = tested on: Sprague-Dawley male rats fed with a low-calcium diet; test: Bone density recovery test after low-calcium diet (DXA, pQCT); assay type: in vivo, rat; conditions: oral 1, 10 or 100 mg/kg·day for seven days after one week low-calcium diet; vs control
Method: Sprague-Dawley male rats at three weeks old were initially fed with a low-calcium diet (containing 0.05% calcium carbonate) for one week, and then fed with a normal diet (containing 1.2% calcium carbonate). The synthetic peptide (No. 1) or physiological saline (control) was administered to the rats by oral gavage using a gastric tube once a day for seven days. The dose of the synthetic peptide was 1, 10 or 100 mg/kg·day. After the oral administration on day 7, the rats were euthanized by bloodletting under anesthesia, and the femurs and tibiae were harvested. The bone volume and bone morphology of the tibiae and femurs were measured by dual energy x-ray absorptiometry (DXA) and peripheral quantitative computed tomography (pQCT).

[4] = tested on: ovariectomized (OVX) female rats; test: Postmenopausal osteoporosis model of ovariectomized rats; assay type: in vivo, rat; conditions: for bone density compared with sham operation group / volume of the cancellous bone compared with sham operation group: six months
Method: Female rats (eight months old, ten rats in each group) underwent ovariectomy (OVX), and synthetic peptide No. 1 was administered to the rats by oral gavage using a gastric tube once a day from the first postoperative day for six months. The dose of the synthetic peptide was 1, 10 or 100 mg/kg·day.

[5] = tested on: mature female rats (eight months old); test: Bone formation-promoting effect in mature rats; assay type: in vivo, rat; conditions: 20 weeks
Method: Synthetic peptide No. 1 was administered to mature female rats (eight months old, ten rats in each group) by oral gavage using a gastric tube once a day for 20 weeks. The dose of the synthetic peptide was 1, 10 or 100 mg/kg·day.

[6] = tested on: aged female rats (13 to 14 months old); test: Bone formation-promoting effect in aged rats; assay type: in vivo, rat; conditions: oral 1, 10 or 100 mg/kg·day, 20 weeks
Method: Synthetic peptide No. 1 was administered to aged female rats (13 to 14 months old, ten rats in each group) by oral gavage using a gastric tube once a day for 20 weeks. The dose of the synthetic peptide was 1, 10 or 100 mg/kg·day.

[7] = tested on: Crlj:W1 male rats at four weeks old; test: Bone formation in growth cartilage and secondary cancellous bone, 21-day oral administration; assay type: in vivo, rat; conditions: 21 days
Method: One of the synthetic peptides (No. 1) or water for injection (control) was administered to Crlj:W1 male rats at four weeks old by oral gavage using a gastric tube once a day for 21 days (n=3 in each group). The dose of the synthetic peptide was 100 mg/kg·day. As a positive control, human growth hormone (hGH) (Norditropin, Standard Commodity Classification No. of Japan: 872412) was subcutaneously administered at 500 μg/kg·day once a day for 21 days. As fluorescent labels for the site of bone formation, tetracycline (20 mg/kg) was subcutaneously administered on day 18 after the administration of the peptide or control, and then calcein (10 mg/kg) was subcutaneously administered on day 20 after the administration of the peptide or control. After the administration of the test sample on day 21, the rats were kept under fasting conditions. Twenty-four hours later, the rats were euthanized by bloodletting under anesthesia, and the tibiae were harvested (see FIG. 20). Non-decalcified specimens of the proximal tibiae were prepared and photographed under a fluorescent microscope (BX-53, OLYMPUS). The bone morphology was measured using a morphometry system (Histometry RT digitizer, System Supply Co., Ltd.) and an analysis software (CSS-840 cancellous bone morphometry version, System Supply Co., Ltd.). The longitudinal growth rate (Lo.G.R.) in the epiphyseal cartilage, which is the increase in the height per day, was determined by measuring the distance between the tetracycline label and the calcein label, and dividing the distance by the administration interval between the fluorescent labels (two days).

[8] = oral 1, 10 or 100 mg/kg·day for six months
[9] = oral 1, 10 or 100 mg/kg·day for six months, significant vs OVX-control group
[10] = No. 1 oral 1, 10 or 100 mg/kg·day, alendronate 300 μg/kg subcutaneous, vs control group

VNPESEEE [No. 1]
osteoblast growth-promoting activity [1]: promoted the growth of osteoblasts in a concentration-dependent manner
effect of enhancing the increase in the height of the tibial growth plates, compared with hGH ([2]; highest dose (100 mg/kg·day oral) vs hGH 20 μg/kg·day subcutaneous, four days): comparable to the effect of the subcutaneous administration of the human growth hormone
increase in the height of the tibial growth plates ([2]; oral gavage 1, 10 or 100 mg/kg·day once a day for four days): enhanced in a manner consistent with the increase in the dose of the synthetic peptide
bone density of the tibiae [3]: tended to be higher in the synthetic peptide administration group than in the control group
length of the tibiae [3]: tended to be higher in the synthetic peptide administration group than in the control group
weight of the tibiae [3]: tended to be higher in the synthetic peptide administration group than in the control group
bone density compared with sham operation group ([4]; high-dose 100 mg/kg·day oral): equal or higher bone density as compared with the sham operation group
volume of the cancellous bone compared with sham operation group ([4]; high-dose 100 mg/kg·day oral): equal or higher volume of the cancellous bone as compared with the sham operation group
bone density compared with sham operation group ([4]; medium-dose 10 mg/kg·day oral): equal or higher bone density as compared with the sham operation group
volume of the cancellous bone compared with sham operation group ([4]; medium-dose 10 mg/kg·day oral): equal or higher volume of the cancellous bone as compared with the sham operation group
OVX-induced increase in the trabecular separation [4, 8]: tended to be inhibited
OVX-induced reduction in the trabecular numbers [4, 8]: tended to be inhibited
OVX-induced reduction in the trabecular width [4, 8]: tended to be inhibited
bone density of the distal femoral metaphysis [4, 9]: increase in the bone density of the distal femoral metaphysis in a manner consistent with the increase in the dose of the synthetic peptide
cancellous bone volume in the proximal tibial metaphysis [4, 9]: increased in the OVX-synthetic peptide administration group in a manner consistent with the increase in the dose
levels of the increases (femur bone density, cancellous bone volume) compared with alendronate [5]: comparable to those in the alendronate administration group
bone density in the femurs [5, 10]: significantly increased
cancellous bone volume in the proximal tibial metaphysis [5, 10]: significantly increased
bone density in the femurs [6]: increased in a dose-dependent manner
cancellous bone volume in the proximal tibial metaphysis [6]: increased in a dose-dependent manner
longitudinal growth rate (Lo.G.R.) in the epiphyseal cartilage, vs control group ([7]; No. 1 oral 100 mg/kg·day, hGH 500 μg/kg·day subcutaneous, FIG. 21): significant promotion of bone growth as compared with the control group
longitudinal growth rate (Lo.G.R.) in the epiphyseal cartilage, vs hGH administration group ([7]; oral 100 mg/kg·day, FIG. 21): significant as compared with the hGH administration group
secondary cancellous bone volume (bone volume/tissue volume (BV/TV)) ([7]; oral 100 mg/kg·day, FIG. 22): higher secondary cancellous bone volume than the control group and the hGH administration group
osteoblast surface/bone surface (Ob.S/BS) ([7]; oral 100 mg/kg·day, FIG. 23): high percentage
osteoclast surface/Bone surface (Oc.S/BS) ([7]; oral 100 mg/kg·day, FIG. 24): low percentage
